Data: US20240209028A1, “CNP COMPOUNDS” (priority 2022, published 2024)
Where two headings read alike, the source gives them in different places. Starred links: 1 amine or outer side, 2 acyl side, 3 side chain; linkers in the order of their positions; H or OH if unused. Positions of bridges follow the written chain, without caps; N, C: chain ends. Residues, ends and D or L forms follow the SMILES beside them. *: point of attachment. C18 diacid = O=C(O)CCCCCCCCCCCCCCCCC(=O)*; γGlu = O=C(O)[C@H](CCC(=O)[*:2])N[*:1]; AEEA = NCCOCCOCC(=O)O

Tests used:
[1] = PK after i.v. and s.c. administration to Göttingen minipig; settings: female, in vivo, Göttingen Minipig; for clearance: read-out: CL (ml/hr/kg), Intravenous PK (converted); for bioavailability: s.c. bioavailability, read-out: F (%), Subcutaneous PK
Outline: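 Female Göttingen minipigs (6-12 months, ~22 kg) and domestic LYD pigs (4-5 months, ~80 kg) given CNP compounds i.v. (30-60 or 15-43 nmol/kg) or s.c. neck (55-62 or 20-30 nmol/kg) via catheter/pen. EDTA plasma sampled up to 14 days, CNP and cGMP by LC-MS; non-compartmental PK, F from dose-normalized AUC s.c./i.v.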

neprilysin (NEP) = neprilysin (NEP) (Homo sapiens, UniProt P08473); assay: In vitro neprilysin stability; settings: recombinant human neprilysin (rhNEP), pH 7.4
Chain of neprilysin (NEP) (P08473 whole entry): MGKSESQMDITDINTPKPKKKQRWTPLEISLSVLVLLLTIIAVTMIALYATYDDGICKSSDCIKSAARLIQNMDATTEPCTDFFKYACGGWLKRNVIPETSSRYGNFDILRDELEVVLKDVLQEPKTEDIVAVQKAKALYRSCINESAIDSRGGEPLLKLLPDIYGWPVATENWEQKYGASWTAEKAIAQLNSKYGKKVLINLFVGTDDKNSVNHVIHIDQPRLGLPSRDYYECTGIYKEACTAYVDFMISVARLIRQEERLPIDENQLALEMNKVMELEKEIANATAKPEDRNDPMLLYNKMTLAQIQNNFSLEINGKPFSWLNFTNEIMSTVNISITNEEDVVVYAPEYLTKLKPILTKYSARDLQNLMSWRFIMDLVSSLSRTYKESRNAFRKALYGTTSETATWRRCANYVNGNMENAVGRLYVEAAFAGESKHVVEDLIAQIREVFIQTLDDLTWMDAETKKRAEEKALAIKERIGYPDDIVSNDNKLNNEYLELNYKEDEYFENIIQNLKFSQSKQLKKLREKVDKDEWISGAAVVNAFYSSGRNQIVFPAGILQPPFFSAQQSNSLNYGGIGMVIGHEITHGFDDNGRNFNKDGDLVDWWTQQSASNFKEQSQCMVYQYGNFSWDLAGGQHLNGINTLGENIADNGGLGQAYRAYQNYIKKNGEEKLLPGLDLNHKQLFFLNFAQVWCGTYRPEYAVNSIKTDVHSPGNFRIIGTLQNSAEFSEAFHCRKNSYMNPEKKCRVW
Experimental: Therefore, an in vitro neprilysin stability assay was set up to test the neprilysin mediated degradation of selected CNP compounds.
Procedure: In short, the assay buffer consisted of PBS-buffer (pH 7.4, ThermoFisher Scientific) with a final concentration of 0.005% v/v tween 20 (Sigma-Aldrich). Recombinant human neprilysin (rhNEP; R&D Systems) and the CNP compounds were dissolved in assay buffer. Native CNP22 (0065, Chem. 1) was included as positive control on each day of incubation. Initially, the CNP compound (the final concentration was 1000 nM) was pre-incubated in assay buffer for 10 min at 37° C. The assay was started by adding either rhNEP (final concentration was 2 μg protein per mL) or assay buffer (adsorption experiment) and the incubation was conducted at 37° C. […] The mixture was centrifuged at 13000 rpm at 4° C. for 20 minutes. After centrifugation, one volume of supernatant was mixed with one volume of Milli-Q water.
Analysis by LCMS: The mixture was analysed by LCMS using an Acquity UPLC Peptide CSH C18 analytical column from Waters (130 Å, 1.7 μm, 1*50 mm) operated at 60° C. A gradient elution was conducted with a Nexera UHPLC system (Shimadzu) using mobile phase A (consisting of Milli-Q water with 0.1% formic acid) and mobile phase B (consisting of acetonitrile with 0.1% formic acid). The flow was 0.3 ml/min. A zenoTOF 7600 mass spectrometer (Sciex) was used as detector and operated in positive electrospray ionisation mode. Data was recorded in full scan mode (m/z 300-1700).
Calibration curves were prepared in assay buffer and treated as study samples. These samples were used for calculating the concentration of the relevant CNP compound in the in vitro samples. Quality control samples were included. For at least 75% of the standards and QCs, the deviation between nominal and calculated concentration was below 20%.
All incubations were conducted in duplicate. Data was reported as percent remaining at 90 min (based on calculated concentrations) compared to the average concentration in the 0.5-minute time point samples.

[2] = Local tolerance of CNP compounds in rats (s.c. injection, histopathology); type: in vivo, Sprague Dawley rat; settings: rat, s.c. 350 μl, about 1000 nmol/ml, 5 days post injection
Outline: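 Male Sprague Dawley rats (10-11 weeks) received two s.c. injections of 250 or 350 uL compound (1000 nmol/mL formulation) in neck or flank, 120 h before necropsy; vehicle 5 mM sodium acetate/250 mM glycerol pH 4.0 or 8 mM sodium phosphate/250 mM glycerol pH 7.4. Injection sites were scored macroscopically, H&E-stained and graded on a 5-level scale (Min to Sev).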

[3] = iv, i.v., read-out: T½, iv (converted)
[4] = sc, s.c., read-out: T½, sc (converted)

CC[C@H](C)[C@@H]1NC(=O)[C@H](CCCNC(=N)N)NC(=O)[C@H](CC(=O)O)NC(=O)[C@H](CC(C)C)NC(=O)[C@@H]2CCCN2C(=O)[C@H](CC(C)C)NC(=O)CNC(=O)[C@H](Cc2ccccc2)NC(=O)[C@@H](NC(=O)CNC(=O)[C@H](CCC(N)=O)NC(=O)[C@H](CO)NC(=O)[C@H](CC(C)C)NC(=O)CNC(=O)[C@H](CCCCN)NC(=O)[C@H](CCCCN)NC(=O)[C@H](CCC(N)=O)NC(=O)[C@H](C)NC(=O)CNC(=O)[C@H](CCCCN)NC(=O)[C@H](Cc2ccc(O)cc2)NC(=O)[C@H](CCCCN)NC(=O)[C@H](CCCNC(=N)N)NC(=O)[C@H](C)NC(=O)COCCOCCNC(=O)COCCOCCNC(=O)COCCOCCNC(=O)COCCOCCNC(=O)CC[C@H](NC(=O)CC[C@H](NC(=O)CC[C@H](NC(=O)CC[C@H](NC(=O)CC[C@H](NC(=O)CCCCCCCCCCCCCCCCC(=O)O)C(=O)O)C(=O)O)C(=O)O)C(=O)O)C(=O)O)CSSC[C@@H](C(=O)O)NC(=O)CNC(=O)[C@H](CC(C)C)NC(=O)CNC(=O)[C@H](CO)NC(=O)[C@H](CC(C)C)NC(=O)[C@H](CO)NC(=O)CNC1=O [Compound 9407] ({C18 diacid-γGlu-γGlu-γGlu-γGlu-γGlu-AEEA-AEEA-AEEA-AEEA}-ARKYKGAQKKGLSQGCFGLPLDRIGSLSGLGC-OH; disulfide 16-32)
clearance ([1]; iv, i.v.): 1.2 mL/h/kg | half-life [1, 3]: 82 h | bioavailability ([1]; sc): 86% | half-life [1, 4]: 92 h | remaining at 1.5 h, 1000 nM (neprilysin (NEP)): 96.6% | Number of injections by severity of necrosis: NAD (No Abnormalities Detected) [2]: 4

CC[C@H](C)[C@@H]1NC(=O)[C@H](CCCNC(=N)N)NC(=O)[C@H](CC(=O)O)NC(=O)[C@H](CC(C)C)NC(=O)[C@@H]2CCCN2C(=O)[C@H](CC(C)C)NC(=O)CNC(=O)[C@H](Cc2ccccc2)NC(=O)[C@@H](NC(=O)CNC(=O)[C@H](CCC(N)=O)NC(=O)[C@H](CO)NC(=O)[C@H](CC(C)C)NC(=O)CNC(=O)[C@H](CCCCN)NC(=O)[C@H](CCCCN)NC(=O)[C@H](CCC(N)=O)NC(=O)[C@H](C)NC(=O)CNC(=O)[C@H](CCCCN)NC(=O)[C@H](Cc2ccc(O)cc2)NC(=O)COCCOCCNC(=O)COCCOCCNC(=O)COCCOCCNC(=O)COCCOCCNC(=O)CC[C@H](NC(=O)CC[C@H](NC(=O)CC[C@H](NC(=O)CCCCCCCCCCCCCCCCC(=O)O)C(=O)O)C(=O)O)C(=O)O)CSSC[C@@H](C(=O)O)NC(=O)CNC(=O)[C@H](CC(C)C)NC(=O)CNC(=O)[C@H](CO)NC(=O)[C@H](CC(C)C)NC(=O)[C@H](CO)NC(=O)CNC1=O [Compound 9480] ({C18 diacid-γGlu-γGlu-γGlu-AEEA-AEEA-AEEA-AEEA}-YKGAQKKGLSQGCFGLPLDRIGSLSGLGC-OH; disulfide 13-29)
clearance ([1]; iv, i.v.): 1.13 mL/h/kg | half-life [1, 3]: 74 h | bioavailability ([1]; sc): 87% | half-life [1, 4]: 67 h | remaining at 1.5 h, 1000 nM (neprilysin (NEP)): 98.3%

CC[C@H](C)[C@@H]1NC(=O)[C@H](CCCNC(=N)N)NC(=O)[C@H](CC(=O)O)NC(=O)[C@H](CC(C)C)NC(=O)[C@@H]2CCCN2C(=O)[C@H](CC(C)C)NC(=O)CNC(=O)[C@H](Cc2ccccc2)NC(=O)[C@@H](NC(=O)CNC(=O)[C@H](CO)NC(=O)[C@H](CO)NC(=O)[C@H](CC(C)C)NC(=O)CNC(=O)[C@H](CCCCN)NC(=O)[C@H](CCCCN)NC(=O)[C@H](CCC(N)=O)NC(=O)[C@H](C)NC(=O)CNC(=O)[C@H](CCCCN)NC(=O)[C@H](Cc2ccc(O)cc2)NC(=O)[C@H](CCCCN)NC(=O)[C@H](CCCNC(=N)N)NC(=O)[C@H](C)NC(=O)[C@H](CCC(N)=O)NC(=O)[C@@H]2CCCN2C(=O)[C@H](Cc2c[nH]cn2)NC(=O)[C@H](CCC(=O)O)NC(=O)[C@H](CCC(N)=O)NC(=O)CC[C@H](NC(=O)CC[C@H](NC(=O)CC[C@H](NC(=O)CC[C@H](NC(=O)CC[C@H](NC(=O)CCCCCCCCCCCCCCCCC(=O)O)C(=O)O)C(=O)O)C(=O)O)C(=O)O)C(=O)O)CSSC[C@@H](C(=O)O)NC(=O)CNC(=O)[C@H](CC(C)C)NC(=O)CNC(=O)[C@H](CO)NC(=O)[C@H](CC(C)C)NC(=O)[C@H](CO)NC(=O)CNC1=O [Compound 9482] ({C18 diacid-γGlu-γGlu-γGlu-γGlu-γGlu}-QEHPQARKYKGAQKKGLSSGCFGLPLDRIGSLSGLGC-OH; disulfide 21-37)
clearance ([1]; iv, i.v.): 1.07 mL/h/kg | half-life [1, 3]: 89 h | bioavailability ([1]; sc): 89% | half-life [1, 4]: 84 h | remaining at 1.5 h, 1000 nM (neprilysin (NEP)): 96.3%
